Calls of active or inactive are those of the source. The rule behind the calls is not given here.
What was measured:
[1] = Toxicity in NOD-SCID mouse xenografted with human KG-1 cells assessed as effect on RBC count at 5 mg/kg, ip qd administered 5 consecutive days per week for 24 days; type: organism-based, Erythrocyte; conditions: in vivo, 576 h, time 24 day
[2] = Toxicity in NOD-SCID mouse xenografted with human KG-1 cells assessed as effect on LDL level at 5 mg/kg, ip qd administered 5 consecutive days per week for 24 days; type: organism-based; conditions: in vivo, 576 h, time 24 day
KG-1 [3] = assay: Antiproliferative activity against human KG-1 cells assessed as inhibition of cell growth incubated for 96 hrs by MTT assay; type: functional, cell-based; conditions: KG-1, 96 h
KG-1 [4] = assay: Antiproliferative activity against human KG-1 cells assessed as inhibition of cell growth at 0.1 nM incubated for 96 hrs in presence of galactose by MTT assay; type: functional, cell-based
[5] = Toxicity in NOD-SCID mouse xenografted with human KG-1 cells assessed as effect on HGB count at 5 mg/kg, ip qd administered 5 consecutive days per week for 24 days; type: organism-based; conditions: in vivo, 576 h, time 24 day
[6] = Toxicity in NOD-SCID mouse xenografted with human KG-1 cells assessed as effect on UREA level at 5 mg/kg, ip qd administered 5 consecutive days per week for 24 days; type: organism-based; conditions: in vivo, 576 h, time 24 day
[7] = Toxicity in NOD-SCID mouse xenografted with human KG-1 cells assessed as effect on MCHC level at 5 mg/kg, ip qd administered 5 consecutive days per week for 24 days; type: organism-based; conditions: in vivo, 576 h, time 24 day
[8] = Toxicity in NOD-SCID mouse xenografted with human KG-1 cells assessed as effect on neutrophil count at 5 mg/kg, ip qd administered 5 consecutive days per week for 24 days; type: organism-based; conditions: in vivo, 576 h, time 24 day
[9] = Acute toxicity in BALB/c mouse assessed as effect on AST level at 68 mg/kg, ip measured on day 14; type: organism-based; conditions: in vivo, 336 h, time 14 day
[10] = Acute toxicity in BALB/c mouse assessed as effect on ALT level at 68 mg/kg, ip measured on day 14; type: organism-based; conditions: in vivo, 336 h, time 14 day
NCM460 = assay: Antiproliferative activity against human NCM460 cells assessed as inhibition of cell growth incubated for 96 hrs by MTT assay; type: functional, cell-based; conditions: NCM460, 96 h
[11] = Toxicity in NOD-SCID mouse xenografted with human KG-1 cells assessed as effect on TP level at 5 mg/kg, ip qd administered 5 consecutive days per week for 24 days; type: organism-based; conditions: in vivo, 576 h, time 24 day
HCT-116 [12] = assay: Induction of mitochondrial dysfunction in human HCT-116 cells assessed as attenuation of oxygen consumption rate at 10 nM incubated for 24 hrs by Seahorse XFe24 analyzer; type: functional, cell-based
[13] = Toxicity in NOD-SCID mouse xenografted with human KG-1 cells assessed as effect on heart damage at 5 mg/kg, ip qd administered 5 consecutive days per week for 24 days by H and E staining based analysis; type: organism-based; conditions: in vivo, 576 h, time 24 day
[14] = Acute toxicity in BALB/c mouse assessed as effect on BILT level at 68 mg/kg, ip measured on day 14; type: organism-based; conditions: in vivo, 336 h, time 14 day
[15] = Acute toxicity in BALB/c mouse assessed as heart damage at 40 to 68 mg/kg, ip measured on day 14 by H and E staining based analysis; type: organism-based; conditions: in vivo, 336 h, dose 40-68 mg/kg, time 14 day
HCT-116 [16] = assay: Induction of mitochondrial dysfunction in human HCT-116 cells assessed as attenuation of basal oxygen consumption incubated for 24 hrs by Seahorse XFe24 analyzer; type: functional, cell-based; conditions: dose 2-10 nM
[17] = Toxicity in NOD-SCID mouse xenografted with human KG-1 cells assessed as effect on UA level at 5 mg/kg, ip qd administered 5 consecutive days per week for 24 days; type: organism-based; conditions: in vivo, 576 h, time 24 day
HCT-116 [18] = assay: Induction of mitochondrial membrane potential depolarization in human HCT-116 cells at 2 nM incubated for 24 hrs by JC-1 staining based flow cytometry analysis; type: functional
[19] = Acute toxicity in ip dosed BALB/c mouse assessed as maximum tolerated dose measured on day 14; type: organism-based; conditions: in vivo, time 14 day
[20] = Apparent permeability across basolateral side to apical in human Caco-2 cells incubated for 120 mins by LC-MS/MS analysis; type: ADME, cell-based
[21] = Acute toxicity in BALB/c mouse assessed as effect on PLT level at 68 mg/kg, ip measured on day 14; type: organism-based; conditions: in vivo, 336 h, time 14 day
[22] = Toxicity in NOD-SCID mouse xenografted with human KG-1 cells assessed as effect on lymphocyte count at 5 mg/kg, ip qd administered 5 consecutive days per week for 24 days; type: organism-based; conditions: in vivo, 576 h, time 24 day
[23] = Acute toxicity in BALB/c mouse assessed as decrease in body weight at 68 mg/kg, ip measured for 6 days; type: organism-based; conditions: in vivo, 144 h, time 6 day
Cytochrome P450 2D6 = Cytochrome P450 2D6 (Homo sapiens, UniProt P10635); assay: Inhibition of CYP2D6 in human liver microsomes incubated for 20 mins in presence of NADPH by LC/MS/MS analysis; type: ADME, Microsome
[24] = Acute toxicity in BALB/c mouse assessed as lung damage at 40 to 68 mg/kg, ip measured on day 14 by H and E staining based analysis; type: organism-based; conditions: in vivo, 336 h, dose 40-68 mg/kg, time 14 day
[25] = Toxicity in NOD-SCID mouse xenografted with human KG-1 cells assessed as effect on ALP level at 5 mg/kg, ip qd administered 5 consecutive days per week for 24 days; type: organism-based; conditions: in vivo, 576 h, time 24 day
[26] = Toxicity in NOD-SCID mouse xenografted with human KG-1 cells assessed as effect on MCH level at 5 mg/kg, ip qd administered 5 consecutive days per week for 24 days; type: organism-based; conditions: in vivo, 576 h, time 24 day
[27] = Acute toxicity in BALB/c mouse assessed as spleen damage at 40 to 68 mg/kg, ip measured on day 14 by H and E staining based analysis; type: organism-based; conditions: in vivo, 336 h, dose 40-68 mg/kg, time 14 day
[28] = Acute toxicity in BALB/c mouse assessed as effect on RBC level at 68 mg/kg, ip measured on day 14; type: organism-based, Erythrocyte; conditions: in vivo, 336 h, time 14 day
[29] = Acute toxicity in BALB/c mouse assessed as effect on WBC level at 68 mg/kg, ip measured on day 14; type: organism-based; conditions: in vivo, 336 h, time 14 day
[30] = Acute toxicity in BALB/c mouse assessed as effect on NEUT level at 68 mg/kg, ip measured on day 14; type: organism-based; conditions: in vivo, 336 h, time 14 day
[31] = Inhibition of mitochondrial complex I (unknown origin) incubated for 15 mins by microplate reader analysis; design: species or system Homo sapiens
[32] = Toxicity in NOD-SCID mouse xenografted with human KG-1 cells assessed as change in body weight at 5 mg/kg, ip qd administered 5 consecutive days per week for 24 days; type: organism-based; conditions: in vivo, 576 h, time 24 day
[33] = Acute toxicity in BALB/c mouse assessed as effect on GLU level at 68 mg/kg, ip measured on day 14; type: organism-based; conditions: in vivo, 336 h, time 14 day
[34] = Acute toxicity in BALB/c mouse assessed as animal death at 116 mg/kg, ip measured on day 14; type: organism-based; conditions: in vivo, time 14 day, read-out: Activity
[35] = Acute toxicity in BALB/c mouse assessed as decrease in body weight at 40 mg/kg, ip measured for 24 hrs; type: organism-based; conditions: in vivo
HCT-116 [36] = assay: Induction of mitochondrial dysfunction in human HCT-116 cells assessed as attenuation of oxygen consumption rate incubated for 24 hrs by Seahorse XFe24 analyzer; type: functional, cell-based; conditions: dose 2-10 nM
HCT-116 [37] = assay: Induction of mitochondrial dysfunction in human HCT-116 cells assessed as attenuation of ATP coupling oxygen consumption rate incubated for 24 hrs by Seahorse XFe24 analyzer; type: functional, cell-based; conditions: dose 2-10 nM

Chain of Cytochrome P450 2D6 (P10635 whole entry): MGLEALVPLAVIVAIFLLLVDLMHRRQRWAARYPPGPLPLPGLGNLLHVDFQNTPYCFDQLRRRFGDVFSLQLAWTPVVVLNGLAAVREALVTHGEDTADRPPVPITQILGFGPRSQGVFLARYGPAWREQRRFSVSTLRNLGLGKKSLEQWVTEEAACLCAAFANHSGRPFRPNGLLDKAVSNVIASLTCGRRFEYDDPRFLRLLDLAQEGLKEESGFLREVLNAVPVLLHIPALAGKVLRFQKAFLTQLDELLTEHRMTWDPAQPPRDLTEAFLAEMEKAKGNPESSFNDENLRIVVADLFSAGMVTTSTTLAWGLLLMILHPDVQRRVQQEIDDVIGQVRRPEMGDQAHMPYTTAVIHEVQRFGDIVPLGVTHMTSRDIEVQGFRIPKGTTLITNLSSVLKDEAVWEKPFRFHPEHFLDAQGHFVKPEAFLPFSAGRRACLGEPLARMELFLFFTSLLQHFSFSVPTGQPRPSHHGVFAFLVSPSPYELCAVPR

Cc1cc(C(=O)Nc2ccc(C(F)(F)F)cc2)nn1Cc1cccc(N2CCN(C(=O)C3CC3)CC2)c1
Activity [1]: Non-Toxic | Activity [2]: Non-Toxic | IC50 (KG-1 [3]): 3.9 nM | Activity (KG-1 [4]): Active | Activity [5]: Non-Toxic | Activity [6]: Non-Toxic | Activity [7]: Non-Toxic | Activity [8]: Non-Toxic | Activity [9]: Non-Toxic | Activity [10]: Non-Toxic | IC50 (NCM460): > 1000 nM | Activity [11]: Non-Toxic | Activity (HCT-116 [12]): Active | Activity [13]: Non-Toxic | Activity [14]: Non-Toxic | Activity [15]: Non-Toxic | Activity (HCT-116 [16]): Dose-Dependent Effect | Activity [17]: Non-Toxic | Activity (HCT-116 [18]): 26.5% | MTD at 336 h [19]: ~6 mg/kg | Papp B→A at 2 h [20]: 3.08 ×10⁻⁶ cm/s | Activity [21]: Non-Toxic | Activity [22]: Non-Toxic | Activity [23]: Non-Toxic | IC50 (Cytochrome P450 2D6): > 10000 nM | Activity [24]: Non-Toxic | Activity [25]: Non-Toxic | Activity [26]: Non-Toxic | Activity [27]: Non-Toxic | Activity [28]: Non-Toxic | Activity [29]: Non-Toxic | Activity [30]: Non-Toxic | IC50 [31]: 830 nM | Activity [32]: Non-Toxic | Activity [33]: Non-Toxic | mortality at 336 h [34]: 33.3% | Activity [35]: Non-Toxic | Activity (HCT-116 [36]): Dose-Dependent Effect | Activity (HCT-116 [37]): Dose-Dependent Effect

Cc1cc(C(=O)Nc2ccc(OC(F)(F)F)cc2)nn1Cc1cccc(N2CCN(C(=O)C3CC3)CC2)c1
Activity [1]: Non-Toxic | Activity [2]: Non-Toxic | IC50 (KG-1 [3]): 5.81 nM | Activity (KG-1 [4]): Active | Activity [5]: Non-Toxic | Activity [6]: Non-Toxic | Activity [7]: Non-Toxic | Activity [8]: Non-Toxic | Activity [9]: Non-Toxic | Activity [10]: Non-Toxic | IC50 (NCM460): > 1000 nM | Activity [11]: Non-Toxic | Activity (HCT-116 [12]): Active | Activity [13]: Non-Toxic | Activity [14]: Non-Toxic | Activity [15]: Non-Toxic | Activity (HCT-116 [16]): Dose-Dependent Effect | Activity [17]: Non-Toxic | Activity (HCT-116 [18]): 34.3% | MTD at 336 h [19]: ~6 mg/kg | Papp B→A at 2 h [20]: 3.25 ×10⁻⁶ cm/s | Activity [21]: Non-Toxic | Activity [22]: Non-Toxic | Activity [23]: Non-Toxic | IC50 (Cytochrome P450 2D6): > 10000 nM | Activity [24]: Non-Toxic | Activity [25]: Non-Toxic | Activity [26]: Non-Toxic | Activity [27]: Non-Toxic | Activity [28]: Non-Toxic | Activity [29]: Non-Toxic | Activity [30]: Non-Toxic | IC50 [31]: 1140 nM | Activity [32]: Non-Toxic | Activity [33]: Non-Toxic | mortality at 336 h [34]: 33.3% | Activity [35]: Non-Toxic | Activity (HCT-116 [36]): Dose-Dependent Effect | Activity (HCT-116 [37]): Dose-Dependent Effect
